According to patent US20110294732A1, “ERYTHROPOLETIN COMPLEMENTATION OR REPLACEMENT” (Universite De Strasbourg, priority 2007, published 2011):
“Also recorded” adds a separate entry of the source.

How the values were obtained:
Effort capacity test = type: in vivo, normal wild-type mice; settings: normal animals, maximum
From the text: The effort capacity of normal animals may be enhanced by up to 100% by ITPP administration, since more oxygen can be delivered to the working muscle.

[1] = Blood counts of piglets after intravenous injection; type: in vivo; settings: iv 1 g/kg
From the text: Blood from 2 piglets that received ITPP (1 g/kg body weight) was collected before injection, 2 hrs after, and daily over a period of 14 days after injection, in order to assess any differences in the blood counts of treated and non-treated piglets.
Blood was taken from the heart of the dead animals for determination of blood counts as well as the amount of sodium, potassium and calcium in the sera. All numbers of blood cells (hematocrit, white blood cells etc.) were halved. The amount of potassium and calcium was normal, while sodium was doubled (before injection: 120-140 mmol/L; after injection: 245 mmol/L). Apparently, the large amount of sodium in that form of ITPP (6 Na^+/molecule) caused the death of the animals. It appears that up to 1 g ITPP per kg body weight can be injected intravenously, (if injected slowly) without harmful effects for the animals. […] A second piglet was also injected with ITPP at the 1 g/kg concentration, after 2 piglets had died after iv injection of 1.2 g ITPP (or even more) per kg body weight. […] Starting with day 3 after injection of the allosteric effector, the number of reticulocytes increased by about 3% for a period of 14 days.

murine hemoglobin = murine hemoglobin (Mus musculus, UniProt P02088); experiment: In vitro P50 shift of hemoglobin mixed with ITPP (HEMOX analyzer); type: biochemical
murine hemoglobin, sequence (P02088 2-147 limits assumed): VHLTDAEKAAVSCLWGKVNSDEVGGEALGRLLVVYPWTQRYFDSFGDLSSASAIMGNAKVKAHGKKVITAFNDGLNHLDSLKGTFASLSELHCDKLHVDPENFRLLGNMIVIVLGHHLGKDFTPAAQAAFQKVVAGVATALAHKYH
murine hemoglobin, sequence (P01942 2-142 partner limits assumed): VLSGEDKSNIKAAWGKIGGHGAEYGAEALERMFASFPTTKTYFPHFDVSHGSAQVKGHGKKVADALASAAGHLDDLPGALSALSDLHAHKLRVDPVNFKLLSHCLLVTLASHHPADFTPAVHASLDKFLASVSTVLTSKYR
Method: Myo-ITPP was tested for its ability to induce a decrease of the O2-affinity of hemoglobin measured as a shift of the P50 value (P50 at 50% saturation of hemoglobin). The observed shifts to higher PO2 were up to 250% in murine hemoglobin and up to 40% in murine whole blood. This finding was particularly striking because the shifts occurred concomitantly in vivo with a decrease in the number of RBCs and hematocrit; such hemodilution is recognized as a positive indicator in many circumstances because it is diagnostic for downregulation of RBC production where the body's oxygen needs are being met efficiently. Additional support came from enhancement of the effort capacity of test animals by up to 100% following ITPP administration, which confirmed that oxygen was being delivered efficiently to the working muscle, and only to that muscle.
(§1) For the in vitro experiments, ITPP was dissolved in deionized water, pH was adjusted to pH 7 and, for incubation with whole blood, the osmolarity of the ITPP solutions was adjusted with glucose to 270-297 mOsM. Mixtures of hemoglobin and ITPP were measured with a HEMOX analyzer (PD Marketing, London) immediately after mixing. Red blood cells were incubated with ITPP for 1 hour at 37° C. Following incubation, the cells were washed 3 times with Bis-Tris-buffer (pH=7.0) and then used for P50 measurement.

RBCs = experiment: Lysis of RBCs after in vitro incubation with effector; type: cell-based, human, mouse and pig
whole blood = experiment: In vitro P50 of whole blood after incubation with effector, pig; type: cell-based; settings: 60 mM
Method: as §1
ITPP was tested along with a cholesteroyl derivative (here designated as kf96) (both at 60 mM) as effectors for P50 shifts in whole blood of three species: human, mouse and pig. As usual, pHs for the compound-solutions were adjusted to ca. 7.0, osmolarities for both solutions were determined (325-373 mOsM) prior to treatment with the effectors, and whole blood volumes at 1:1 ratios were incubated.

[2] = Hematocrit after IP injection; type: in vivo; settings: 6 days after IP injection of 200 μl of a 60 mM solution; 40% on day 0
Method: It appears, based upon the preliminary data reported, that an inverse relationship exists between the number of RBCs and shift of their P50 value (see FIG. 1). The basal value of the RBC count is restored, once ΔP50 becomes 0%, 12 days after ingestion of ITPP. The hematocrit drops from 40% on day 0 (before ITPP administration) to 32%, 6 days after IP injection of 200 μl of a 60 mM ITPP solution.

## O=P1(O)OC2C3OP(=O)(O)OP(=O)(O)OC3C3OP(=O)(O)OP(=O)(O)OC3C2OP(=O)(O)O1 (stereo not shown) [ITPP, inositol-tripyrophosphate]
Effort capacity test
  enhancement of the effort capacity: up to 100%
[1]
  number of other cells such as white blood cells: No major differences
[1]; 5-14 days after injection, day 14
  reticulocytes, increasing numbers: up to 3.0%
[1]; first 3 days (24 to 72 hrs) after injection, from 1.4% / 1.5%
  reticulocyte population after decrease: 0.5%
[1]; first days after injection
  hematocrit and number of RBCs: slight decrease; also recorded: decrease in hematocrit was observed
[1]; injected slowly
  pathological changes of the blood counts: did not show any pathological changes
[1]; starting with day 3, for a period of 14 days
  increase of the number of reticulocytes: about 3%
Murine hemoglobin
  shift of the P50 value to higher PO2: up to 250%
RBCs
  lysis of RBCs: never occurred; also recorded: no lysis of RBCs was observed
Whole blood; pig whole blood
  P50 increase, % (ITPP): 40%
Whole blood; pig whole blood, control 32.2
  P50 mm Hg effector ITPP: 45.2 mm Hg
Whole blood; summary over human, pig and mouse whole blood
  right shift in the Hb-O2 dissociation curve, strongest shift: up to 40%
[2]
  hematocrit: 32%
